Data on eight compounds can be found in US11364299B2, “Non-addictive analgesic sustained-release drug delivery system and preparation method thereof” (LIPONT PHARMACEUTICALS INC., priority 2013, dated 2022).

The nature of data set [1]: Structural stability of ropivacaine sustained-release formulations (content determination). The following applies: content determination after 30 days. It is filed as physicochemical.
Data set [2] in a line: Solubility tests of ropivacaine free base and corresponding salts. It is filed as physicochemical. The text has this: If a drug dissolved completely, addition of this drug was continued until saturation.
The nature of data set [3]: Formulation experiment for sustained-release formulation delivery system. The following applies: for Solubility: in ethanol, benzyl alcohol, benzyl benzoate, and ethyl lactate. It is filed as physicochemical. An excerpt: Detailed experimental procedures were similar to those in Experimental Example 2. As shown in the experimental results, part of the drug delivery system combinations that may be used in the formula of the sustained-release formulation delivery system is as follows: […]

Data set [4] is described as follows: In vitro dissolution stability of the drug formulations. It is filed as physicochemical. The following applies: compared with ropivacaine free base.
For another data set, the system named is patients. As to conditions: cited from earlier work.
For data set [5] the following is noted: cited from earlier work.
The test system of the next data set is plasma proteins. As to conditions: concentration-dependent; cited from earlier work.
The nature of data set [6]: Compound compositions: dezocine and parecoxib in the drug delivery systems. As to conditions: prescribed compositions of Table IV; 25° C. and 4° C., about 24 h. It is filed as physicochemical.
Data set [7] in a line: Verification of the solubility of various local anesthetics in the sustained-release drug delivery system. It is filed as physicochemical. As to conditions: 4° C., 24 hours, 15-20 mg/ml. On the procedure: The 12 local anesthetics were each added into the selected drug delivery systems, and the dissolution process of the drugs was observed (norm: 15-20 mg/ml, observed at 25° C. for 24 hours with recordation; or observed at 4° C. for 24 hours with recordation).

The mark [8] stands for this setting: in glyceryl monoacetate, 25° C.
The mark [9] stands for this setting: in tetrahydrofurfuryl polyethylene glycol ether, 25° C.

SMILES strings stand for the structures. Where a name gives a salt, the structure may show the parent alone. Read-outs that look alike come from different tables or passages of the source.

Consider `CCCN1CCCC[C@H]1C(=O)Nc1c(C)cccc1C` [Ropivacaine free base], for which, in [1], the “structural stability in various prescribed compositions” value is “structurally stable and did not degrade”. For the same compound, the Solubility (as a rule, how much of the substance goes into solution per volume) in data set [2] (in anhydrous ethanol, 25° C.) was 155000 µg/mL; in data set [2] (in anhydrous ethanol, 25° C., listed as ropivacaine free base), “exceeding 150 mg/ml”; in [2] (in benzyl alcohol, 25° C.), 225000 µg/mL; in [2] (in benzyl alcohol, 25° C., listed as ropivacaine free base), “exceeding 150 mg/ml”; in data set [2] (in benzyl benzoate, 25° C.), 70000 µg/mL; in data set [2] (in castor oil, 25° C.), 17000 µg/mL. In addition, the Solubility in data set [2] (in corn oil, 25° C.) was 9400 µg/mL; in [2] (in ethyl lactate, 25° C.) it was 80000 µg/mL; in data set [2] (in ethyl oleate, 25° C.) it was 14900 µg/mL; in data set [2] (setting [8]), 18000 µg/mL; in [2] (in olive oil, 25° C.), 9800 µg/mL; in data set [2] (in sesame oil, 25° C.) it was 11700 µg/mL. In addition, the Solubility in data set [2] (in soybean oil, 25° C.) stood at 9600 µg/mL; in data set [2] (setting [9]) it was 39600 µg/mL. Besides, in [3], the “solubility in mixed solvent” value is “increased solubility”.

For the compound `CCCN1CCCC[C@H]1C(=O)Nc1c(C)cccc1C` [Ropivacaine hydrochloride], the Solubility in [2] (anhydrous ethanol, 25 °C, organic solvent or mixture, thermodynamic from solid, in anhydrous ethanol, read-out: Solubility) is 95000 µg/mL; in data set [2] (benzyl alcohol, 25 °C, organic solvent or mixture, thermodynamic from solid, in benzyl alcohol, read-out: Solubility) it was > 100000 µg/mL; in data set [2] (benzyl benzoate, 25 °C, organic solvent or mixture, thermodynamic from solid, in benzyl benzoate, read-out: Solubility) it was 2500 µg/mL; in data set [2] (castor oil, 25 °C, oil or lipid, thermodynamic from solid, in castor oil, read-out: Solubility), 1700 µg/mL; in data set [2] (corn oil, 25 °C, oil or lipid, thermodynamic from solid, in corn oil, read-out: Solubility), 2500 µg/mL; in data set [2] (ethyl lactate, 25 °C, organic solvent or mixture, thermodynamic from solid, in ethyl lactate, read-out: Solubility), 16500 µg/mL. Also, the Solubility in [2] (ethyl oleate, 25 °C, oil or lipid, thermodynamic from solid, in ethyl oleate, read-out: Solubility) amounted to 2200 µg/mL; in [2] (glyceryl monoacetate, 25 °C, organic solvent or mixture, thermodynamic from solid, in glyceryl monoacetate, read-out: Solubility), 30000 µg/mL; in [2] (in benzyl alcohol, 25° C.), 140000 µg/mL; in data set [2] (olive oil, 25 °C, oil or lipid, thermodynamic from solid, in olive oil, read-out: Solubility), 1700 µg/mL; in data set [2] (sesame oil, 25 °C, oil or lipid, thermodynamic from solid, in sesame oil, read-out: Solubility), 2000 µg/mL; in data set [2] (soybean oil, 25 °C, oil or lipid, thermodynamic from solid, in soybean oil, read-out: Solubility), 2000 µg/mL. Moreover, the Solubility in [2] (tetrahydrofurfuryl polyethylene glycol ether, 25 °C, organic solvent or mixture, thermodynamic from solid, in tetrahydrofurfuryl polyethylene glycol ether, read-out: Solubility) stood at 9000 µg/mL. The “solubility in mixed solvent” value in data set [3] (mixture of benzyl benzoate with one of ethanol and benzyl alcohol) is listed as “increased solubility”.

As to `CCCN1CCCC[C@H]1C(=O)Nc1c(C)cccc1C.CS(=O)(=O)O` [Ropivacaine methansulfonate], in [4], the “solubility in various prescribed compositions” value is reported as “slightly poorer than that of ropivacaine free base”. The Solubility in data set [2] (in anhydrous ethanol, 25° C.) is 320000 µg/mL; in data set [2] (in anhydrous ethanol, 25° C., listed as ropivacaine methansulfonate) it was “exceeding 190 mg/ml”; in data set [2] (in benzyl alcohol, 25° C.), 550000 µg/mL; in data set [2] (in benzyl alcohol, 25° C., listed as ropivacaine methansulfonate), “exceeding 190 mg/ml”; in data set [2] (in benzyl benzoate, 25° C.), 2000 µg/mL; in data set [2] (in castor oil, 25° C.) it was 2000 µg/mL. Moreover, the Solubility in [2] (in corn oil, 25° C.) is 1700 µg/mL; in data set [2] (in ethyl lactate, 25° C.), 198000 µg/mL; in [2] (in ethyl lactate, 25° C., listed as ropivacaine methansulfonate) it was “exceeding 190 mg/ml”; in [2] (in ethyl oleate, 25° C.) it was 2000 µg/mL; in data set [2] (setting [8]) it was 50000 µg/mL; in data set [2] (in olive oil, 25° C.) it was 2000 µg/mL. The Solubility amounted to 1700 µg/mL in data set [2] (in sesame oil, 25° C.); 2500 µg/mL in data set [2] (in soybean oil, 25° C.); 13200 µg/mL in data set [2] (setting [9]). Further, in [3], the “solubility in mixed solvent” value was “increased solubility”.

Regarding `CCCN1CCCC[C@H]1C(=O)Nc1c(C)cccc1C` [Ropivacaine, 1-propy 1-2,6-pipeco loxylidide laevo isomer], the “cardiac toxicity and safety” value in the data set with patients (0.1% ropivacaine versus 0.1% bupivacaine, elderly patients) was “relatively lower cardiac toxicity and higher safety in use”. Further, in the data set with patients (0.1% ropivacaine, elderly patients after lower limb surgeries (Zonglin YANG et al.)), the “analgesic effect of continuous epidural infusion” value is “comparable to that with 0.1% bupivacaine”. Further, the “transaxillary brachial plexus block” value in the data set on patients (0.375% ropivacaine versus 0.25% bupivacaine (Qihong ZHAO et al.)) was “faster onset, better efficacy, and fewer adverse effects as compared to 0.25% bupivacaine”. Besides, in the data set with patients (human, in vivo), the “local infiltration anesthetic analgesia” value is “substantial and lasting analgesic effect with few adverse reactions”. For the same compound, in the data set on patients (human, one clinical injection), the analgesic duration entry is reported as “about 8 hours”. For the same compound, in the data set on patients (versus bupivacaine (Shunfu CHEN)), the “gynecologic post-operative patient-controlled analgesia” value is on record as “more suitable for patient-controlled analgesic local anesthesia in gynecologic post-operative patients than bupivacaine”. In data set [5] (epidural), the “epidural absorption, half-time of fast phase” value is reported as 14 min and the “epidural absorption, half-time of slow phase” value is listed as 4 h. Further, the steady distribution volume in [5] (in vivo) was 47 L. Further, the “association with plasma proteins” value in the data set on plasma proteins is 94%.

On to `C[C@@]12CCCCC[C@@H](Cc3ccc(O)cc31)[C@@H]2N` [dezocine], for which the figures for the Solubility in [6] and in data set [3] were > 30000 µg/mL and “good solubility”, respectively.

On to `CCC(=O)NS(=O)(=O)c1ccc(-c2c(-c3ccccc3)noc2C)cc1` [parecoxib], for which the Solubility in data set [6] is > 20000 µg/mL; in [3] it was “good solubility”.

In the case of `CCN(CC)CCOC(=O)c1ccc(N)cc1` [procaine], the “solubility in the ethyl oleate/soybean oil drug delivery system” value in [7] is listed as “slightly precipitated”.

Take `CCCCNc1ccc(C(=O)OCCN(C)C)cc1` [tetracaine]: in data set [7], the “solubility in the ethyl oleate/soybean oil drug delivery system” value is reported as “slightly precipitated”.
